Results reported in patent US7816371B2, “Bicycloheteroaryl compounds as P2X7 modulators and uses thereof” (Renovis, Inc., priority 2006, dated 2010).

These compounds were tested against T1, P2X7 receptor (Homo sapiens, UniProt Q99572) (assay: IL-1β release assay in differentiated THP-1 cells stimulated with BzATP (Example 9); % inhibition and IC50). Conditions: 0.3 μM compound; differentiated THP-1 cells, BzATP 250 uM; read-out: IL-1β % Inhib. @ 0.3 μM.
T1 construct: host or cells: THP-1 cells differentiated with LPS and IFN-γ
T1 sequence (Q99572 1-595): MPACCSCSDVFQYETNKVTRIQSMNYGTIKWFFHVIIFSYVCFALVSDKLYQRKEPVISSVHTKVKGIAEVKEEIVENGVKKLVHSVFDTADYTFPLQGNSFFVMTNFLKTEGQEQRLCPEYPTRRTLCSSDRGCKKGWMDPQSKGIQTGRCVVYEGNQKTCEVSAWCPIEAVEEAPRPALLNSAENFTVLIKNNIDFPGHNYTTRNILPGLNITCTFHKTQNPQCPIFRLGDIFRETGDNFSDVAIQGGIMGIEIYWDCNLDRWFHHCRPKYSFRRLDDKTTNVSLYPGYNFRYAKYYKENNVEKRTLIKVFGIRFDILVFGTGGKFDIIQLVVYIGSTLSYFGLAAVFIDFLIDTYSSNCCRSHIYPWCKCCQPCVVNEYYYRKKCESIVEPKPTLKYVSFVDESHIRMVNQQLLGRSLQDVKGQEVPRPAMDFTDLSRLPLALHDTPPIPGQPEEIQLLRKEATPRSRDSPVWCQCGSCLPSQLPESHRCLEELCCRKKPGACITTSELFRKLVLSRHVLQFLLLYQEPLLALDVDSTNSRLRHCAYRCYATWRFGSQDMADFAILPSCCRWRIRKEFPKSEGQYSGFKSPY
Format: cell-based
Procedure: The cells are then pretreated for 30 minutes with the compound of interest at the appropriate concentration in RPMI media containing 100 IU/mL penicillin, 100 ug/mL streptomycin. […] 30 uL of cell supernatant is then collected and IL-1β levels determined via ELISA (R&D systems Cat. # HSLB50) according to manufacturer's recommendations using the Tecan Safire plate reader. Background adjusted IL-1β levels of drug treated and non-treated cells are used to calculate the percent inhibition.
The compounds set forth in Table 1 were tested for activity in a cellular model as described herein.

Structure (SMILES)	inhibition at 0.3 µM
C[C@H](C(N)=O)n1ccc2c(NC(=O)Cc3ccc(C(F)(F)F)cc3)c(Cl)ccc2c1=O [Compound 316, (R)-2-{6-Chloro-1-oxo-5-[2-(4-trifluoromethyl-phenyl)-acetylamino]-1H-isoquinolin-2-yl}-propionamide]	51 to 75%

Same assay, conditions: THP-1 cells differentiated with LPS and IFN-γ, 30 min pretreatment, BzATP 250 uM, IL-1β by ELISA

IC50	Structure (SMILES)
41.1 nM	CC(C)(CO)n1ccc2c(NC(=O)Cc3ccc(C(F)(F)F)c(F)c3)cccc2c1=O [Compound 365]
4.65 nM	C[C@H](CO)n1ccc2c(NC(=O)Cc3ccc(C(F)(F)F)c(F)c3)c(Cl)ccc2c1=O [Compound 375, N-[6-Chloro-2-((R)-2-hydroxy-1-methyl-ethyl)-1-oxo-1,2-dihydro-isoquinolin-5-yl]-2-(3-fluoro-4-trifluoromethyl-phenyl)-acetamide]
15.5 nM	CC(C(=O)Nc1cccc2c(=O)n([C@@H](C)C(N)=O)ccc12)c1ccc(Cl)c(C(F)(F)F)c1 (stereo partly drawn) [Compound 356]
21.6 nM	C[C@H](C(N)=O)n1ccc2c(NC(=O)Cc3cccc(Cl)c3)cccc2c1=O [Compound 255]
144 nM	CNCCn1ccc2c(NC(=O)Cc3ccc(Cl)c(Cl)c3)cccc2c1=O [Compound 234]
302 nM	C[C@H](C(=O)Nc1cccc2c(=O)n([C@H](C)C(=O)NC3CC3)ccc12)c1ccc(Cl)cc1 [Compound 308, (R)-2-{5-[(S)-2-(4-Chloro-phenyl)-propionylamino]-1-oxo-1H-isoquinolin-2-yl}-N-cyclopropyl-propionamide]
35.8 nM	C[C@@H](C(N)=O)n1ccc2c(NC(=O)Cc3ccc(C(F)(F)F)cc3)cccc2c1=O [Compound 351]
> 1000 nM	O=C(Cc1ccc(Cl)c(Cl)c1)Nc1c(Cl)ccc2c(=O)n(CCO)ccc12 [Compound 248]
7.91 nM	C[C@H](C(N)=O)n1ccc2c(NC(=O)Cc3ccc(C(F)(F)F)cc3)cccc2c1=O [Compound 298]
20.6 nM	C[C@H](C(N)=O)n1ccc2c(NC(=O)Cc3ccc(F)cc3Cl)cccc2c1=O [Compound 291]
167 nM	CC(C)(CO)n1ccc2c(NC(=O)Cc3ccc(C(F)(F)F)cc3)cccc2c1=O [Compound 363]
3.92 nM	C[C@H](C(=O)Nc1cccc2c(=O)n([C@H](C)C(N)=O)ccc12)c1ccc(Cl)c(Cl)c1 [Compound 268]
8.97 nM	C[C@H](C(N)=O)n1ccc2c(NC(=O)[C@H](C)c3ccc(Cl)c(Cl)c3)cccc2c1=O [Compound 269]
374 nM	C[C@H](C(N)=O)n1ccc2c(NC(=O)Cc3c(F)cccc3C(F)(F)F)cccc2c1=O [Compound 286]
11.8 nM	CC(C(=O)Nc1cccc2c(=O)n([C@@H](C)C(N)=O)ccc12)c1ccc(Cl)cc1 (stereo partly drawn) [Compound 240]
9.15 nM	CC(C(=O)Nc1cccc2c(=O)n([C@H](C)C(N)=O)ccc12)c1cccc(C(F)(F)F)c1F (stereo partly drawn) [Compound 337]
31.2 nM	C[C@@H](C(N)=O)n1ccc2c(NC(=O)Cc3ccc(C(F)(F)F)c(F)c3)cccc2c1=O [Compound 347]
320 nM	CC(C)[C@H](C(=O)O)n1ccc2c(NC(=O)[C@@H](C)c3ccc(Cl)cc3)cccc2c1=O [Compound 323, (R)-2-{5-[(S)-2-(4-Chloro-phenyl)-propionylamino]-1-oxo-1H-isoquinolin-2-yl}-3-methyl-butyric acid]
14.6 nM	O=C(Cc1ccc(C(F)(F)F)c(F)c1)Nc1cccc2c(=O)n(CCO)ccc12 [Compound 357]
163 nM	C[C@@H](CO)n1ccc2c(NC(=O)Cc3ccc(F)c(Cl)c3)cccc2c1=O [Compound 331]
161 nM	CC(C(=O)Nc1cccc2c(=O)n([C@H](CO)C(N)=O)ccc12)c1ccc(Cl)cc1 (stereo partly drawn) [Compound 252, (R)-2-{5-[2-(4-Chloro-phenyl)-propionylamino]-1-oxo-1H-isoquinolin-2-yl}-3-hydroxy-propionamide]
5.54 nM	Cc1ccc2c(=O)n([C@H](C)CO)ccc2c1NC(=O)Cc1ccc(C(F)(F)F)cc1 [Compound 397]
663 nM	C[C@H](C(N)=O)n1ccc2c(NC(=O)Cc3ccccc3F)cccc2c1=O [Compound 294]
> 1000 nM	CC(C)C(C(=O)Nc1cccc2c(=O)n(CCO)ccc12)c1ccc(Cl)cc1 (stereo not drawn) [Compound 78]
60.3 nM	CC(C)(CO)n1ccc2c(NC(=O)Cc3cccc(C(F)(F)F)c3F)cccc2c1=O [Compound 368]
421 nM	CC(C)(CO)n1ccc2c(NC(=O)Cc3ccc(F)c(Cl)c3)cccc2c1=O [Compound 372]

IC50	Structure (SMILES)
32.7 nM	C[C@@H](C(N)=O)n1ccc2c(NC(=O)Cc3ccc(Cl)c(F)c3)cccc2c1=O [Compound 352]
> 1000 nM	O=C(Cc1cccc(C(F)(F)F)c1F)Nc1c(NCCO)ccc2c(=O)n(CCO)ccc12 [Compound 385, 2-(2-Fluoro-3-trifluoromethyl-phenyl)-N-[2-(2-hydroxy-ethyl)-6-(2-hydroxy-ethylamino)-1-oxo-1,2-dihydro-isoquinolin-5-yl]-acetamide]
3.54 nM	CC(C)[C@H](CO)n1ccc2c(NC(=O)[C@H](C)c3ccc(Cl)cc3)cccc2c1=O [Compound 273, (R)-2-(4-Chloro-phenyl)-N-[(R)-2-(1-hydroxymethyl-2-methyl-propyl)-1-oxo-1,2-dihydro-isoquinolin-5-yl]-propionamide]
208 nM	NCC(CCl)Cn1ccc2c(NC(=O)Cc3ccc(Cl)c(Cl)c3)cccc2c1=O (stereo not drawn) [Compound 259]
221 nM	C[C@H](C(=O)Nc1cccc2c(=O)n(C(C(N)=O)c3ccc(Cl)cc3)ccc12)c1ccc(Cl)cc1 (stereo partly drawn) [Compound 315, (S)—N-{2-[Carbamoyl-(4-chloro-phenyl)-methyl]-1-oxo-1,2-dihydro-isoquinolin-5-yl}-2-(4-chloro-phenyl)-propionamide]
52.6 nM	O=C(Cc1ccc(F)c(Cl)c1)Nc1cccc2c(=O)n(CCO)ccc12 [Compound 341]
44.4 nM	C[C@H](C(N)=O)n1ccc2c(NC(=O)Cc3ccc(F)cc3F)cccc2c1=O [Compound 293]
6.27 nM	C[C@@H](C(N)=O)n1ccc2c(NC(=O)Cc3ccc(Cl)cc3C(F)(F)F)cccc2c1=O [Compound 237, (S)-2-{5-[2-(4-Chloro-2-trifluoromethyl-phenyl)-acetylamino]-1-oxo-1H-isoquinolin-2-yl}-propionamide]
184 nM	C[C@H](C(N)=O)n1ccc2c(NC(=O)Cc3ccc(F)cc3C(F)(F)F)cccc2c1=O [Compound 295]
10.7 nM	O=C(Cc1ccc(Cl)c(C(F)(F)F)c1)Nc1cccc2c(=O)n(C[C@@H]3CCCN3)ccc12 [Compound 232, 2-(4-Chloro-3-trifluoromethyl-phenyl)-N-(1-oxo-2-(S)-1-pyrrolidin-2-ylmethyl-1,2-dihydro-isoquinolin-5-yl)-acetamide]
6.62 nM	C[C@H](C(N)=O)n1ccc2c(NC(=O)Cc3cccc(C(F)(F)F)c3F)cccc2c1=O [Compound 285]
3.57 nM	C[C@H](C(N)=O)n1ccc2c(NC(=O)Cc3ccc(F)c(Cl)c3)cccc2c1=O [Compound 301]
532 nM	O=C(Cc1ccc(F)cc1)Nc1cccc2c(=O)n(CCO)ccc12 [Compound 73]
70.6 nM	CNCCn1ccc2c(NC(=O)Cc3ccc(Cl)c(C(F)(F)F)c3)cccc2c1=O [Compound 235, 2-(4-Chloro-3-trifluoromethyl-phenyl)-N-[2-(2-methylamino-ethyl)-1-oxo-1,2-dihydro-isoquinolin-5-yl]-acetamide]
> 1000 nM	C[C@H](C(N)=O)n1ccc2c(NC(=O)Cc3ccccn3)cccc2c1=O [Compound 309]
258 nM	CC(C)(CO)n1ccc2c(NC(=O)Cc3ccc(Cl)c(F)c3)cccc2c1=O [Compound 373]
> 1000 nM	O=C(Cc1ccccc1)Nc1cccc2c(=O)n(CCO)ccc12 [Compound 76]
187 nM	O=C(Cc1ccc(Cl)cc1C(F)(F)F)Nc1cccc2c(=O)n(CCO)ccc12 [Compound 229]
> 1000 nM	CS(=O)(=O)c1ccc(CC(=O)Nc2cccc3c(=O)n(CCO)ccc23)cc1 [Compound 72]
18.5 nM	C[C@H](C(N)=O)n1ccc2c(NC(=O)Cc3ccc(F)c(Br)c3)cccc2c1=O [Compound 307]
82 nM	CNC(=O)[C@@H](C(C)C)n1ccc2c(NC(=O)[C@H](C)c3ccc(Cl)cc3)cccc2c1=O [Compound 277]
311 nM	O=C(Nc1cccc2c(=O)n(CCO)ccc12)c1ccc(C(F)(F)F)cc1C(F)(F)F [Compound 6]
395 nM	C[C@H](C(N)=O)n1ccc2c(NC(=O)Cc3ccc(Cl)cc3F)c(Cl)ccc2c1=O [Compound 343]
789 nM	CC(C)(CO)n1ccc2c(NC(=O)Cc3ccc(C(F)(F)F)cc3C(F)(F)F)cccc2c1=O [Compound 366]
110 nM	COc1ccc(CC(=O)Nc2cccc3c(=O)n(CCO)ccc23)cc1Br [Compound 66]
10.8 nM	O=C(Cc1ccc(Cl)cc1Cl)Nc1cccc2c(=O)n(CCO)ccc12 [Compound 69]

Structure (SMILES)	IC50
C[C@H](C(N)=O)n1ccc2c(NC(=O)Cc3ccc(C(F)(F)F)cc3)c(Cl)ccc2c1=O [Compound 316, (R)-2-{6-Chloro-1-oxo-5-[2-(4-trifluoromethyl-phenyl)-acetylamino]-1H-isoquinolin-2-yl}-propionamide]	2.29 nM
